Results from patent US6664368B1, “Inhibition of nuclear import by backbone cyclic peptide analogs” (priority 1997, dated 2003).
Numbered stars: 1 amine (or outer) side, 2 acyl side, 3 side chain; on linkers, the order of the positions; unused ones are H or OH. Bridge positions count the residues as written; N and C are the ends. Square brackets hold non-standard residues; d marks the D form. Ends that are not written are not given here. Peptide text beside a SMILES is read from it. N(6-aminohexyl)Gly = O=C(CN(CCCCCCN[*:3])[*:1])[*:2]; X1 = CC(C)[C@H](NC(=O)CCCCC(=O)[*:1])C(=O)[*:2]

How the values were obtained:
[1] = system: trypsin; assay: Stability to proteolytic cleavage by trypsin; type: in vitro ADME; details: trypsin solution; room temperature, TEA buffer pH 7.8, HPLC peak area; read-out: half life (t½) of digestion by trypsin (converted)
Description: Method: A mixture containing 0.05 ml of trypsin solution (8% w/v in HCl 0.001M), 0.5 ml TEA buffer pH=7.8 (Geiger, R.; Fritz, H. In Methods of enzymatic analysis; H. U. Bergmeyer, et al. Eds.; Weinheim: Verlag-chemie: 1984; pp 119-129) and 0.2 ml of peptide 22 (BCvir) solution in water (initial concentration of 1.25 mg/ml) was injected to HPLC (C3 column, gradient of 5-60% acetonitrile:TDW containing 0.1% TFA, 35 minutes) immediately after addition of the peptide (t=0). The mixture was incubated at room temperature and samples were injected every 70 min. […] The peak area of the peptide at each time interval was compared to the peak area of the peptide in t=0, as a measure of the relative peptide concentration.

[2] = system: Hut 78 cells; details: 0.1, 1, 10 and 100 μg/ml; 1, 2, 4 and 7 days post seeding
Description: Method: Hut 78 cells (0.5×10^6/ml) were cultured without or with 0.1, 1, 10 and 100 μg/ml of BCvir. The number of living cells was determined by staining with trypan blue 1, 2, 4 and 7 days post seeding,.

[3] = system: nuclear import of SV40-NLS-BSA (biotinylated BSA-NLS); assay: Quantitative ELISA-based nuclear import assay, inhibition of NLS-BSA (SV40-NLS-BSA) uptake in permeabilized Colo-205 cells; type: cell-based; parameters: key to Nuclear uptake of SV40-BSA: +: most of the cells in the field (more than 70-80%) did show nuclear uptake (presence of fluorescent dye within the nuclei); −: most of the cells in the field (more than 70-80%) did show nuclear uptake (their cytoplasm, and not the nuclei, were fluorescently labeled); details: for Nuclear uptake of SV40-BSA: in the presence of the free peptide, ELISA-based assay; for Nuclear entry (%) of SV40-NLS-BSA: WGA 0.6 mg/ml or Tat-NLS peptide 1 mg/ml preincubated 30 minutes, entry with cytosolic factors = 100%
Description: (§1) Nuclear import was quantitatively determined essentially as described before (Melchior, et al. (1993) J. Cell. Biol. 123 (6). 1649-1659), except that a suspension of Colo-205 cells was used instead of a suspension of HeLa cells and 500 nM biotinylated BSA-NLS were used as a transport substrate. The immunomodule strips were coated with rabbit anti-BSA serum instead of using the IgG fraction. The results given are an average of triplicate determination whose standard deviation never exceeded ±20%.
Nuclear uptake was determined by the ELISA-based assay, except where indicated. IC50 values were determined by using peptides and transport substrates in molar ratios between 500:1 and 0.005:1 respectively. Cysteine residues in all the peptides are not part of the original sequence and were added in order to conjugate them to BSA.
Inhibition of nuclear uptake was estimated by addition of the above listed peptides to a nuclear transport system using SV40-NLS-BSA as a transport substrate.
(§2) Nuclear transport using SV40-NLS-BSA and Tat-NLS-BSA as transport substrates was performed employing the in-vitro ELISA system.

[4] = system: nuclear import of Tat-NLS-BSA; assay: In-vitro ELISA nuclear transport with Tat-NLS-BSA as transport substrate; type: cell-based, human; details: WGA 0.6 mg/ml or Tat-NLS peptide 1 mg/ml preincubated 30 minutes; entry with cytosolic factors = 100%
Description: as §1
The entry of the conjugates into nuclei of permeabilized colo cells was estimated as described above. ATP was depleted, WGA (0.6 mg/ml) and Tat-NLS peptide (1 mg/ml) were preincubated for 30 minutes at room temperature with the permeabilized cells before adding the BSA conjugates.
as §2

[5] = system: nuclear import of VprN/VprC-BSA conjugate in permeabilized cells; assay: Nuclear import of Vpr peptide-BSA conjugates in permeabilized cells; type: cell-based
Excerpt: Viral protein r (Vpr), an HIV-1 auxiliary protein which mediates nuclear import of the viral preintegration complex (PIC), contains two regions, N- and C-terminal, which have been proposed to function as a nuclear localization signal (NLS). We have synthesized peptides corresponding to both regions (designated as VprN and VprC), conjugated them to bovine serum albumin (BSA), and tested their ability to mediate nuclear import in permeabilized cells.

[6] = system: translocation of FL-NLS-BSA into nuclei of digitonin-permeabilized HeLa cells; assay: Nuclear import estimated by fluorescence microscopy; type: cell-based; parameters: key: +: most of the cells in the field (more than 70-80%) did show nuclear uptake (presence of fluorescent dye within the nuclei); −: most of the cells in the field (more than 70-80%) did show nuclear uptake (their cytoplasm, and not the nuclei, were fluorescently labeled); details: in the presence of the free peptide; based on fluorescent microscopy observations (footnote 3)
Excerpt: HeLa cells were cultivated on 10 mm coverslips to subconfluent density and then permeabilized with digitonin as described before (Broder, et al. ibid). Linear peptides bearing the NLS signal of the SV40 large T-antigen were covalently attached to fluorescently labeled (with FITC) BSA molecules (Goldfarb, et al. (1986) Nature 322, 641-644) and translocation of the resulting fluorescently labeled-NLS-BSA molecules (FL-NLS-BSA) into nuclei of digitonin-permeabilized HeLa cells was followed by fluorescent microscopy observations, as described (Broder, et al. ibid).

[7] = SV40-NLS-BSA substrate, peptide:substrate molar ratios between 500:1 and 0.005:1
[8] = purified peptides, inhibition of nuclear import of NLS-BSA

Compound	Nuclear uptake of SV40-BSA [3]	IC50 [3, 7] [µM]	other results
CC(C)C[C@H](NC(=O)[C@H](CCCCN)NC(=O)CN1CCCCCCNC(=O)[C@H](C(C)C)NC(=O)CCCCC(=O)N[C@@H](CCCCN)C(=O)N[C@@H](CCCCN)C(=O)N[C@@H](CCCCN)C1=O)C(N)=O [BCvir] (KKK[N(6-aminohexyl)Gly]KL-NH2; linker N-4 via X1)			half-life [1]: 7 h; effect on growth rate of uninfected cells [2]: did not affect the growth rate
NCCCC[C@H](NC(=O)CN1CCCCCCNC(=O)CNC(=O)CCCCC(=O)N[C@@H](CCCCN)C(=O)N[C@@H](CCCCN)C(=O)N[C@@H](CCCCN)C1=O)C(N)=O [peptide 19.4]			half-life [1]: 9 h
CGPKNKRKV [SV40 mutant]	+		
CVKRKKKPG (Human Immunodeficiency Virus (HIV-1)) [SV40 reverse]	+		
C^7KRSMGGWSAIRERMRR^22 [Nef NLS]	−	11	
C^35RQARRNRRRRWRERQRQ^51 (N-terminal cysteine; UniProt P04618 35-51, looked up, fragment) [Rev NLS]	−	347	
C^48GRKKRRQRRRAHQN^61 (N-terminal cysteine; UniProt P04608 48-61, looked up, fragment) [Tat NLS]	−	147	Nuclear entry (%) of SV40-NLS-BSA [3]: 52%; Nuclear entry (%) of Tat-NLS-BSA [4]: 15.4%
C^88EWRKKRYSTOV^98 [Vif 88-98 K91L] (CEWRLKRYSTQV; not fully specified; printed as C^88EWRKKRYSTOV^98 [Vif 88-98 K91L])	+		
C^88EWRKKRYSTOV^98 [Vif 88-98] (CEWRKKRYSTQV; not fully specified; printed as C^88EWRKKRYSTOV^98 [Vif 88-98]; UniProt P69723 88-98, looked up, fragment)	−	62	
GKKKYKLKHC [HIV-MA NLS]			IC50 [3, 8]: 12 µM
PKKKRKVC [SV40 large T-antigen NLS]	−	0.02	IC50 [3, 8]: 0.001 µM; inhibition of nuclear import of the VprN conjugate [5]: not inhibited
^30YVSGKARGWFYRHHY^44 [Vif 30-44]			Nuclear uptake of SV40-BSA [6]: +
^41RHHYESPHPRISSEV^55 [Vif 41-55]			Nuclear uptake of SV40-BSA [6]: +
^51ISSEVHIPLGDARLV^65 [Vif 51-65]			Nuclear uptake of SV40-BSA [6]: +
^78DWHLGQGV^85 (Human Immunodeficiency Virus (HIV-1)) [Vif 78-85]			Nuclear uptake of SV40-BSA [6]: +
^85VSIEWRKK^92 (UniProt P69723 85-92, looked up, fragment) [Vif 85-92]	−	253	
^88EWRKKRYS^95 (Human Immunodeficiency Virus (HIV-1)) [Vif 88-95]	−		
wheat germ agglutinin [WGA]			Nuclear entry (%) of SV40-NLS-BSA [3]: 49.8%; Nuclear entry (%) of Tat-NLS-BSA [4]: 53.6%; inhibition of nuclear import of the VprN conjugate [5]: inhibited
